The values that follow are results of earlier work, collected in patent publication US12433863B2, “Pharmaceutical compositions and uses directed to lysosomal storage disorders” (INTRABIO LIMITED, priority 2016, dated 2025).

Data set [1] concerns rat model of an acute unilateral labyrinthectomy. To be noted: Gunther et al. 2015; cited from earlier work.
The test system of data set [2] is glycosphingolipid (GSL) biosynthesis. The settings on record: Patterson, 2006; cited from earlier work.

Take `CC(=O)N[C@@H](CC(C)C)C(=O)O` [N-acetyl-L-leucine]: in data set [1], the “Effect on postural compensation” value is given as “significant effect”.
Take `CCCCN1C[C@H](O)[C@@H](O)[C@H](O)[C@H]1CO` [miglustat]: the “Benefit in clinical trial of substrate reduction therapy” value in data set [2] is “some benefit”.
